Experimental findings from publication PMC5581131, “The novel sphingosine-1-phosphate receptors antagonist AD2900 affects lymphocyte activation and inhibits T-cell entry into the lymph nodes” (Oncotarget, 2017) are described below.

The test relates to human PBMCs. The test is described as follows: 5-day MLR with Et-18-OCH3, BAPTA-AM or 8-bromo-cAMP preincubation, analogues present throughout. Format: cell-based. To be noted: 2 μM; 1 hour preincubation with the inhibitors. The protocol:
To determine whether the effect of inhibition of AD2900 on PBMC proliferation is dependent on the same signal transduction pathways, we next examined the capacities of the intracellular Ca^2+ chelator-BAPTA-AM, phosphatidylinositol-specific PLC inhibitor-Et-18-OCH3, and cell-permeate exogenous cAMP-8-bromo-cAMP to alter the suppressive effect of AD2900 and FTY720 on PBMC proliferation. S1P served as a positive control (Figures 2A, 2B, and 2C, respectively). PBMCs were pre-incubated for 1 hour with the inhibitors before the addition of 2 μM AD2900, FTY720, or S1P in the MLR experiment. The inhibitors and the analogues were present in the culture throughout the allogeneic activation. AD2900 suppression of PBMC proliferation was reduced from 59% ± 3% to 32% ± 7% by the exogenous cAMP. BAPTA-AM also partially reversed AD2900 suppression of PBMC proliferation from 59% ± 3% to 32% ± 3%, yet Et-18-OCH3 had no effect (Figure 2A).
Figure 2 Effect of AD2900 on proliferation is dependent on cAMP reduction and calcium signal transduction The effect of Edelfosine (Et-18-OCH3) (Et), BAPTA-AM (BAPTA), or 8-bromo-cAMP (8-b-CAMP) on the inhibition of PBMC proliferation was tested in a 5-day MLR experiment. The cells were incubated with 1 μM Edelfosine, 0.2 μM BAPTA-AM, or 5 μM 8-bromo-cAMP for 1 hour before the addition of sphingolipid analogues, 2 μM AD2900 (AD) (A), FTY720 (FTY) (B), or S1P (C). Significances are compared to AD2900/FTY/S1P without preincubation, respectively. Graphs summarize the results of at least four independent experiments. Results of Student’s t-test: *(P < 0.05, two-tailed test), ** (P < 0.01, two-tailed test).
Human PBLs were collected from human whole blood collected from healthy donors. Subsequently, the cells were centrifuged on a Ficoll-Paque gradient (Fresenius Kabi Norge AS, Oslo, Norway) and were isolated from the interphase layer. For the human MLR experiment, PBMCs from one healthy donor were pretreated for 1 day with AD2900, AD2730, AD2750, YZ297, YZ158, FTY720, or SEW2871. After 24 h, cells were washed and plated at a concentration of 5 × 10^4 cells/well in round bottom 96-well plates containing RPMI-1640 medium Supplemented with 10% human AB serum, 1% penicillin/streptomycin, and 1% l-glutamine (Beit Haemek, Israel). PBMCs from a second donor were irradiated at 3000 γ dosage and added to the plate in a 1:1 ratio with the first donor cells. The cells were cultured for 5 days. For the thymidine incorporation assay, after 4 days of co-culture, cells were pulsed with ^3H-thymidine at 1 μCi (0.037MBq) per well (PerkinElmer, MA, USA) for 16 additional hours and then harvested onto glass-fiber filters. ^3H-thymidine incorporation was measured using Top Count. NXT (PerkinElmer, UK). In other experiments, the supernatant was harvested after 5 days of co-culture for IFN-γ and TNF-α cytokine ELISA measurements (eBioscience, CA, USA). The cells were then collected for assessing apoptosis by FACS in MACSQuant analyzer (Miltenyi Biotech, Germany). In another set of experiments, the PBMCs of two donors were mixed. Sphingolipid analogues were then added to the culture and sustained through the 5 days of the MLR experiment.

Turning to `CCCCCCCCCCCCC/C=C/[C@@H](O)[C@@H](N)COP(=O)(O)O` [S1P, Sphingosine-1-phosphate], the “effect of Et-18-OCH3, BAPTA-AM and 8-bromo-cAMP on suppression of PBMC proliferation” value is listed as “reversed by all three inhibitors”.
